In patent US20240350494A1, “THERAPEUTIC MODULATION OF INTEGRINS” (Pliant Therapeutics, Inc., priority 2021, published 2024):
Entries after “also recorded” stand apart in the source; their conditions may differ.

Tests used:
lung collagen = assay: Murine bleomycin model, collagen deposition; format: in vivo, mice (C57BL/6); conditions: bleomycin mice
Protocol: Mice (C57BL/6) were divided into healthy (n=15), vehicle-treated (n=15), and test article-treated (n=15 per dose) groups. Mice in the vehicle and test article-treated groups were administered 3 U/kg of bleomycin (Teva Pharmaceuticals; North Wales, PA) via oropharyngeal aspiration while under anesthesia on day 0. Healthy animals were administered water in a similar fashion. Starting on day 7, mice in the control group were administered PBS vehicle, 130 μL, by oral gavage, BID for 14 days. Also starting on day 7, mice in the test group were administered compound 5 in PBS by oral gavage, BID for 14 days, at relative dosages of 1×, 2.5× and 5×. […] From day 14 through day 21, 9 of the 15 mice were administered ^2H2O for labeling. All mice were sacrificed on day 21 and tissues were collected. Samples were prepared for analysis either directly from lung tissue, or by bronchoalveolar lavage, which washes out the bronchiolar and alveolar space with saline to produce a bronchoalveolar lavage fluid (BALF) in which 80-90% of cells are alveolar macrophages.
FIGS. 2F, 2G, and 2H show high resolution second harmonic generation images of fibrillar collagen (collagen type I and III) taken from formalin-fixed paraffin embedded lung tissue sections from a healthy mouse lung (2F), a vehicle-treated mouse lung (2G) and a test-article treated mouse lung (2H; 500 mg/kg BID). Color scale is indicative of collagen fiber density (red=most dense; blue=least dense).
FIG. 2I is a graph showing the percent total collagen area in the second harmonic generation mouse lung images. Large structural areas of collagen found similarly in healthy and fibrotic tissues (dense collagen fibers surrounding airways were excluded from this analysis to focus on interstitial fibrotic collagen). […] The 1×, 2.5×, and 5× dosages were at the same absolute values in mg/kg as in Example B2.

[1] = Unbound plasma concentration in the PET study; format: in vivo, human; conditions: IPF
Protocol: (§1) This Example was conducted as an open-label, single-dose (60 mg, 120 mg, 240 mg or 320 mg) clinical trial evaluating αVβ6 receptor occupancy in the lungs, safety, and pharmacokinetics of Compound 5 in subjects with IPF. Knottin tracer uptake kinetics were compared pre- and post-dose of the disclosed compound, as measured by standardized uptake values (SUVs) and parameters estimated from kinetic modeling in regions-of-interest on dynamic [^18F]FP-R01-MG-F2 PET/CT scans. […] Receptor occupancy was estimated from the output of the two-compartment model (VT, the volume of labeled tissue) using standard equations and fitting algorithms, and corrections for VND (non-displaceable tracer binding). For example, in FIG. 8, the data points, shown as circles, are modeled by the following formula: […]
(§2) Five subjects with IPF were enrolled: Subject A received a single dose of 60 mg of the disclosed compound followed by a post-dose scan. Subject B received two doses of the disclosed compound separated by two weeks, 120 mg and 240 mg, each followed by a post-dose scan. Subject C received two doses of the disclosed compound separated by two weeks, 240 mg and 320 mg, each followed by a post-dose scan. Subject D received a single dose of 320 mg of the disclosed compound followed by a post-dose scan.

αVβ6 = biological target: T1, αVβ6 (Homo sapiens, UniProt P06756+P18564); assay: αVβ6 target engagement in IPF lungs, [18F]FP-R01-MG-F2 PET/CT; format: in vivo; design: key to Vt: VT = volume of labeled tissue, from two-compartment kinetic model; key to Vs (corrected for non-displaceable binding, VND = 0.66): VT corrected for non-displaceable tracer binding (VND)
T1 construct: evaluating αVβ6 receptor occupancy in the lungs; from tissue; host or cells: lungs of living participants with IPF (in vivo PET/CT)
T1 sequence (P06756 31-889 limits assumed): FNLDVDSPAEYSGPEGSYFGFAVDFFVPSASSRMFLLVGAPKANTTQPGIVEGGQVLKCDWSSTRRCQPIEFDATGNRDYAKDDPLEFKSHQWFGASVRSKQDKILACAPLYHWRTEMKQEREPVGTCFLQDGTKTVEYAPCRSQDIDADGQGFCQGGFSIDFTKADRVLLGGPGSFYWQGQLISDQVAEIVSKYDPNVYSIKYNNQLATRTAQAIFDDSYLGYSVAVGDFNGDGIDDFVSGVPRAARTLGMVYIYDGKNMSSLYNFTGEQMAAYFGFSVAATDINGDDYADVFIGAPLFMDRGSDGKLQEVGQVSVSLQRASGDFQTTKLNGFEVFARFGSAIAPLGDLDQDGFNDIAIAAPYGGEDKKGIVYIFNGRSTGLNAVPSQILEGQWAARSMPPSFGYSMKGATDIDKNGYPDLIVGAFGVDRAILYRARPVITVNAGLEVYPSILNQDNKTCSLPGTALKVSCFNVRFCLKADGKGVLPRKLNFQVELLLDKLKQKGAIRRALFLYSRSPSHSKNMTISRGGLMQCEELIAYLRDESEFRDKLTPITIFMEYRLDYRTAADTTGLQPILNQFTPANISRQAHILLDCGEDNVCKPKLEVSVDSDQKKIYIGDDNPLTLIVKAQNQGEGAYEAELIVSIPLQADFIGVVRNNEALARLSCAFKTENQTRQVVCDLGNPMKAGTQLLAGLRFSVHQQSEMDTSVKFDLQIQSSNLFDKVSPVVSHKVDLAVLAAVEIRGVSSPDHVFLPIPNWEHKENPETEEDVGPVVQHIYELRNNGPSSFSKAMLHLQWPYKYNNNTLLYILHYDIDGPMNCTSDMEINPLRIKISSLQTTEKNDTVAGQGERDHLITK
T1 sequence (P06756 891-1048 partner limits assumed): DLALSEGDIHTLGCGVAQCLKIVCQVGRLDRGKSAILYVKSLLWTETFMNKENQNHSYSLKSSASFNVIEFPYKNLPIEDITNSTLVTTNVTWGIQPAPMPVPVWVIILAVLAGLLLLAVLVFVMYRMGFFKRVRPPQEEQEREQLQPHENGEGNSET
T1 sequence (P18564 22-788): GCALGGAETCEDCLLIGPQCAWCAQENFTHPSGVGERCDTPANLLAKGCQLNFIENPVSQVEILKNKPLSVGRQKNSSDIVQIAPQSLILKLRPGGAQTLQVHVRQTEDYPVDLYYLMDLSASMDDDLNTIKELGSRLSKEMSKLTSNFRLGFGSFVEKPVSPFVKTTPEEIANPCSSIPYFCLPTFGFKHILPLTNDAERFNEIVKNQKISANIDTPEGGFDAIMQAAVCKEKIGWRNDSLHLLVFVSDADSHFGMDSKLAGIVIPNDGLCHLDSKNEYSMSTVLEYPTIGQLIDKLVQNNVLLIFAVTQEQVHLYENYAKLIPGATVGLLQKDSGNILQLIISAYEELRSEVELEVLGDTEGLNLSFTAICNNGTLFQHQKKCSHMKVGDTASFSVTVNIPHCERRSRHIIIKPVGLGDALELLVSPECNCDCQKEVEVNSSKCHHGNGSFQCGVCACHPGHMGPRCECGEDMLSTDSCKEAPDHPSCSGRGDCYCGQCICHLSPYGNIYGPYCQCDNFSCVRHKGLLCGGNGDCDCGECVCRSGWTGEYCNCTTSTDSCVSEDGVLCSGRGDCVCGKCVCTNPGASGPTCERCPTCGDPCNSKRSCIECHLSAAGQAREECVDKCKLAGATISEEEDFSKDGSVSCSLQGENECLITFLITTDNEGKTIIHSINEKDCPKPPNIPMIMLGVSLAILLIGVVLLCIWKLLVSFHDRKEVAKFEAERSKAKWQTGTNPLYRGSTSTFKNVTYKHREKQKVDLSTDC
Protocol: The aim of this Example is to assess target engagement of the disclosed compounds to αVβ6 in participants with IPF using [^18F]FP-R01-MG-F2 PET/computerized tomography (CT) imaging.
as §1, §2

[2] = Phase 2a trial in IPF, safety and tolerability; format: in vivo, human
pSmad2/Smad2 = assay: Alveolar pSmad2/Smad2 in BAL, 80 mg and 160 mg QD (FIG. 10); format: in vivo, human; conditions: 80 mg and 160 mg QD (Part 1), p<0.0001
Protocol: Alveolar pSmad2/Smad2 percentage change from baseline at 24 h (Part 1: 80 mg and 160 mg). […] BAL—bronchoalveolar lavage; pSmad2/Smad2—ratio of phosphorylated Smad2 to total Smad2; QD—once daily.

[3] = tested on: IPF-derived human lung fibroblasts; assay: LAP adhesion assay, IPF-derived human lung fibroblasts (express αVβ1); format: cell-based; conditions: LAP-coated plates, cell index, xCELLigence; FIG. 1B
Protocol: Two latency associated peptide (LAP) adhesion binding assays were devised using primary human lung cells, including normal (healthy) human bronchial epithelial cells and human lung fibroblasts (healthy and IPF).
Human lung fibroblasts derived from normal and IPF lung tissue are known to express αVβ1 integrin. The IPF-derived human lung fibroblasts were prepared for the assay by dissociation with trypsin/EDTA, and were seeded at 20,000 cells per well on 96 well plates (ACEA Bioscience E-plate View, Acea Biosciences; San Diego, CA) previously coated with 5 µg/ml of recombinant human LAP (R&D Systems; Minneapolis, MN) and blocked with 4% bovine serum albumin. Cell index (electrical impedance) was measured to assess cell attachment/spreading every 3 minutes for 24 hours at 37° C./5% CO2 using the xCELLigence RTCA MP Instrument (Acea Biosciences; San Diego, CA). […] In the assay, the IPF-derived human lung fibroblasts were separately incubated with: the αVβ1-selective small molecule inhibitor; the selective antibody αVβ6 inhibitor, 3G9; and compound 5.

[4] = of the 67 patients treated with Compound 5

Compound: COCCN(CCCCc1ccc2c(n1)NCCC2)CC[C@H](Nc1ncnc2ccccc12)C(=O)O [Compound 5, (S)-4-((2-methoxyethyl)(4-(5,6,7,8-tetrahydro-1,8-naphthyridin-2-yl)butyl)amino)-2-(quinazolin-4-ylamino)butanoic acid]
- accumulated new collagen (percentage of lung collagen containing 2H-labeled hydroxyproline) (lung collagen; 1× and 5× BID, FIG. 2D): dose-dependent reduction
- total pulmonary collagen (μg of hydroxyproline) (lung collagen; 1×, […], 5× BID, FIG. 2E): reduction in total pulmonary collagen
- total collagen area in second harmonic generation images (lung collagen; 1×, […], 5× BID, FIG. 2I): substantial, statistically significant dose-dependent reduction
- Conc (Unbound Plasma Concentration) ([1]; Subject A, single 60 mg dose): 3.66 nM
- Conc (Unbound Plasma Concentration) ([1]; Subject B, 120 mg dose): 10 nM
- Conc (Unbound Plasma Concentration) ([1]; Subject B, 240 mg dose two weeks after 120 mg): 58.3 nM
- Conc (Unbound Plasma Concentration) ([1]; Subject C, 240 mg dose): 103 nM
- Conc (Unbound Plasma Concentration) ([1]; Subject D, single 320 mg dose): 33.6 nM
- decrease of the volume of distribution of the knottin radiotracer in the lungs (αVβ6; 60 mg dose): approximately 50%
- decrease of the volume of distribution of the knottin radiotracer in the lungs (αVβ6; 240 and 320 mg doses): greater than 95%
- Receptor occupancy (αVβ6; IPF lungs, at pharmacologically relevant plasma concentrations): > 95%
- Vs (corrected for non-displaceable binding, VND = 0.66) (αVβ6; Subject A, 60 mg, post-dose scan (baseline Vs 2.47)): 1.18
- Vt (αVβ6; Subject A, 60 mg, post-dose scan (baseline Vt 3.13)): 1.84
- % DeltaVt (αVβ6; Subject B, 120 mg): 59.76%
- Vs (corrected for non-displaceable binding, VND = 0.66) (αVβ6; Subject B, 120 mg, post-dose scan (baseline Vs 2.48)): 0.99
- Vt (αVβ6; Subject B, 120 mg, post-dose scan (baseline Vt 3.12)): 1.65
- Vs (corrected for non-displaceable binding, VND = 0.66) (αVβ6; Subject B, 240 mg, post-dose scan (baseline Vs 2.46)): 0.06
- Vt (αVβ6; Subject B, 240 mg, post-dose scan (baseline Vt 3.12)): 0.72
- Vs (corrected for non-displaceable binding, VND = 0.66) (αVβ6; Subject C, 240 mg, post-dose scan (baseline Vs 1.1)): 0,32
- Vt (αVβ6; Subject C, 240 mg, post-dose scan (baseline Vt 1.76)): 0.98
- Vs (corrected for non-displaceable binding, VND = 0.66) (αVβ6; Subject C, 320 mg, post-dose scan (baseline Vs 1.1)): 0.19
- Vt (αVβ6; Subject C, 320 mg, post-dose scan (baseline Vt 1.76)): 0.85
- Vs (corrected for non-displaceable binding, VND = 0.66) (αVβ6; Subject D, 320 mg, post-dose scan (baseline Vs 1.4)): 0.09
- Vt (αVβ6; Subject D, 320 mg, post-dose scan (baseline Vt 2.06)): 0.75
- concentration at which the exposure response saturates (αVβ6; measured drug exposure at 4 hours, approaching 100% receptor occupancy): about 100 nM
- discontinuations due to adverse events ([2]; 12 weeks, 40-160 mg QD): no discontinuations due to adverse events; also recorded: No premature discontinuations due to AEs; also recorded: no participants discontinued Compound 5 due to TEAE
- most frequent TEAE ([2]; 12 weeks, 40-160 mg QD): diarrhea but only seen in patients on standard of care
- severity of most treatment emergent adverse events (TEAE) ([2]; 12 weeks, 40-160 mg QD): mild or moderate in severity
- treatment related deaths or drug related serious adverse events (SAE) ([2]; 12 weeks, 40-160 mg QD): No treatment related deaths or drug related serious adverse events (SAE) were reported; also recorded: No deaths or drug-related SAEs; also recorded: no treatment-emergent serious adverse events (SAEs) were observed; also recorded: no treatment related SAEs or deaths
- tolerability ([2]; IPF patients, 40, 80, 160 mg once daily, 12 weeks): safe and well tolerated
- patients who completed 12 weeks of treatment, number [2, 4]: 65
- patients who completed 12 weeks of treatment, proportion [2, 4]: 97%
- Alveolar pSmad2/Smad2 percentage change from baseline at 24 h vs. placebo (pSmad2/Smad2): statistically significant at both doses
- inhibition of cell adhesion in the IPF-derived lung fibroblasts [3]: substantially inhibited
